From publication PMC9103758 (International Journal of Molecular Sciences, 2022)

Assays:
Format in all cases: cell-based
VRAC in HeLa cells = target: T1, VRAC in HeLa cells (Homo sapiens, UniProt Q8IWT6)
T1 construct: endogenous in cells; host or cells: HeLa cervical cancer cells stably expressing the YFP halide sensor
T1 sequence (Q8IWT6 1-810): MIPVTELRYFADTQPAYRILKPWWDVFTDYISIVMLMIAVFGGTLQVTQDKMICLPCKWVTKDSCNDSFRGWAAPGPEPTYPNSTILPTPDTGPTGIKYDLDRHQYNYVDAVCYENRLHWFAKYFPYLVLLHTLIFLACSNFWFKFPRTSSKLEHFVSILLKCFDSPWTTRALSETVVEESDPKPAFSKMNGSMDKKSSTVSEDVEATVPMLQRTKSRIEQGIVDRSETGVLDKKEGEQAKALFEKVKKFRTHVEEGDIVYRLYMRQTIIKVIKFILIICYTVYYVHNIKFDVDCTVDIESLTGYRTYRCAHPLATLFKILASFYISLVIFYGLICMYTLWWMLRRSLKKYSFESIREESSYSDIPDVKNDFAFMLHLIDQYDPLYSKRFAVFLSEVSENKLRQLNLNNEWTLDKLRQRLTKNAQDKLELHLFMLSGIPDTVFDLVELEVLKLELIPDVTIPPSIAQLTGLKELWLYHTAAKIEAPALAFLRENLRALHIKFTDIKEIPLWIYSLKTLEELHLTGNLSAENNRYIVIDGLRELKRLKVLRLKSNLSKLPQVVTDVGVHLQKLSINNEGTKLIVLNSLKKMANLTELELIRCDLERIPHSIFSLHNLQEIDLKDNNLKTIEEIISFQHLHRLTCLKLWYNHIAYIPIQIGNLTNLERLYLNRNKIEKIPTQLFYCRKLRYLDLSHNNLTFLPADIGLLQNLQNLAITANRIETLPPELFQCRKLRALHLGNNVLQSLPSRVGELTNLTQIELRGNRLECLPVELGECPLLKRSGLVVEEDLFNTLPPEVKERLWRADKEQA

[1] = target: T2, VRAC-mediated chloride current (ICl, swell) in LN215 cells (Homo sapiens, UniProt Q8IWT6); assay: Whole-cell voltage-clamp of ICl,swell in LN215 cells; details: dose-dependent
T2 construct: endogenous in cells; host or cells: LN215 human glioma cells stably expressing the halide sensor YFP-F46L/H148Q/I152L
T2 sequence (Q8IWT6 1-810): T1 sequence (Q8IWT6 1-810)
Experimental: (A) Whole-cell membrane currents were recorded at a holding potential of −50 mV by voltage steps ranging from −120 to 120 mV (in steps of 20 mV) in HEK293T cells. […] (C) Whole-cell VRAC currents were recorded at a holding potential of −50 mV by voltage steps ranging from −100 to 100 mV (in steps of 20 mV) in LN215 cells.
For volume-regulated anion channel (VRAC) currents measurement, the isotonic bath solution contained (in mM): 150 NaCl, 6 KCL, 1.5 CaCl2, 1 MgCl2, 10 glucose, 1 HEPES, and pH 7.4 with NaOH (320 mOsm). […] The pipette solution contained (in mM): 40 CsCl, 100 Cs-methanesulfonate, 0.5 EGTA, 1 MgCl2, 1.9 CaCl2, 5 EGTA, 4 Tris−ATP, 10 HEPES, and pH 7.2 with CsOH (290 mOsm). Pipettes were pulled from borosilicate glass and had resistances of 3–5 MΩ after fire polishing. Seal resistances were between 3 and 10 GΩ. The liquid junction potential (~2.4 mV) was not corrected. After establishing the whole-cell configuration, whole-cell capacitance and series resistance were compensated with the amplifier circuitry. VRAC was activated by exposing LN215 cells to a 25% hypotonic bath solution. Whole-cell currents were elicited by applying hyperpolarizing and depolarizing voltage pulses from a holding potential of 0 mV to potentials between −100 mV and +100 mV or −120 mV and +120 mV in steps of 20 mV. Recordings were made at room temperature. […]

ANO1 = target: T3, ANO1 (Homo sapiens, UniProt Q5XXA6, DEL476-501); assay: YFP fluorescence quenching assay for ANO1 activity in FRT-ANO1 cells; details: ATP 100 μM, n = 4
T3 construct: expressed in transfected cells; host or cells: Fisher rat thyroid (FRT) cells; The YFP assay uses FRT-ANO1-YFP cells, which also carry the halide sensor
T3 sequence (Q5XXA6 with tags, fused parts or gaps isoform Q5XXA6-5 DEL539-564): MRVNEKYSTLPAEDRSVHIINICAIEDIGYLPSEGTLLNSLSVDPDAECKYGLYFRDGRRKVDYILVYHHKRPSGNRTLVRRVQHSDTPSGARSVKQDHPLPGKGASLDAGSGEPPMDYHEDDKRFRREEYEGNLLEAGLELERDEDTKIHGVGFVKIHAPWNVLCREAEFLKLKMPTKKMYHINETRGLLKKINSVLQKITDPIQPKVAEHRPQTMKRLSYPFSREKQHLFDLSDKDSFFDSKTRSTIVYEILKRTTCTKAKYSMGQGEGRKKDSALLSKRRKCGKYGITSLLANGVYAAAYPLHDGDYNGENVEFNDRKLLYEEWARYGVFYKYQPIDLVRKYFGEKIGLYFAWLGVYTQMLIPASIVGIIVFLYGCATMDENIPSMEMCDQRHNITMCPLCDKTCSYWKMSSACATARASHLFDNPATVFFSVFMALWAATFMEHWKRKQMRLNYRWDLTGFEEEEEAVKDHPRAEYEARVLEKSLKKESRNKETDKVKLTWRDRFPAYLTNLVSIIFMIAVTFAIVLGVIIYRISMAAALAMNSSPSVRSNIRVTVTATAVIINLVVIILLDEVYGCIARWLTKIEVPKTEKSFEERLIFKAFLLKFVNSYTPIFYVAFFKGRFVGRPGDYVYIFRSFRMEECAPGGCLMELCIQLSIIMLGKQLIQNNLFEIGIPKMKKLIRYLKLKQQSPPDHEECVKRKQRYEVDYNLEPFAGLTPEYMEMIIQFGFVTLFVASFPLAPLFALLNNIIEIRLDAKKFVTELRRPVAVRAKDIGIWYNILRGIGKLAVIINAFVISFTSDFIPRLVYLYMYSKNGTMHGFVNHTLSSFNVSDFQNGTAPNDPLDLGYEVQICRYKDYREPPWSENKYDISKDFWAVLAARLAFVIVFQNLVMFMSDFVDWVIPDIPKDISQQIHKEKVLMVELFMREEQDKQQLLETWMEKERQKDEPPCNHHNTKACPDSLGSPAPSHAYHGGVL
Experimental: Figure 2 Inhibitory effects of VI-101, VI-201 and VI-301 on VRAC and ANO1. (A–C) Representative YFP fluorescence traces for VRAC activity. LN215 cells were treated with the indicated concentrations of VI-101, VI-201 and VI-301 with hypotonic solution for 5 min. (D) Dose-response curve of VRAC inhibition (mean ± S.E., n = 4). (E–G) Representative YFP fluorescence traces for ANO1 activity. […]. (H) Dose-response curve of ANO1 inhibition (mean ± S.E., n = 4).
Human ANO1(abc) expressing Fisher rat thyroid (FRT) cells, ANO2 expressing FRT cells, and human CFTR expressing FRT cells were cultured as described in a previous study. LN215 cells were stably transfected with the halide sensor YFP-F46L/H148Q/I152 and NIH-3T3 cells cultured in DMEM were supplemented with 10% FBS, 2 mM L-glutamine, 100 units/mL penicillin, and 100 μg/mL streptomycin. HEK293T cells were stably transfected with the human Kv11.1 (hERG) and cultured in DMEM supplemented with 10% FBS, 2 mM L-glutamine, 100 units/mL penicillin, and 100 μg/mL streptomycin. PC3, HT29, and HeLa cells were stably transfected with the halide sensor YFP-F46L/H148Q/I152 and cultured in RPMI 1640 supplemented with 10% FBS, 2 mM L-glutamine, 100 units/mL penicillin, and 100 μg/mL streptomycin. […]

In the case of `COc1cccc(C(c2c(O)c3ccccc3oc2=O)c2c(O)c3ccccc3oc2=O)c1O` [VI-116, 3,3′-((2-hydroxy-3-methoxyphenyl)methylene)bis(4-hydroxy-2H-chromen-2-one)], the IC50 (VRAC in HeLa cells) is reported as 1.2 ± 0.08 µM, the “effect on hypotonic perfusion activated ICl, swell” value [1] is reported as “completely blocked” and the IC50 (ANO1) is reported as 39.1 µM.
